“And” between values parts separate entries of the source, which are not always exact repeats. Equal entries are not always repeated. Where two headings read alike, the source gives them in different places.
Experiments:
DAT = molecular target: T1, DAT (Rattus norvegicus, UniProt P23977); assay: Transporter release assay in rat brain synaptosomes, DAT; format: biochemical; details: [3H]-MPP+, mean (95% confidence interval)
T1 construct: a native tissue preparation that contains plasma membrane transporters in situ; from tissue; host or cells: rat striatum synaptosomes
T1 sequence (P23977 whole entry): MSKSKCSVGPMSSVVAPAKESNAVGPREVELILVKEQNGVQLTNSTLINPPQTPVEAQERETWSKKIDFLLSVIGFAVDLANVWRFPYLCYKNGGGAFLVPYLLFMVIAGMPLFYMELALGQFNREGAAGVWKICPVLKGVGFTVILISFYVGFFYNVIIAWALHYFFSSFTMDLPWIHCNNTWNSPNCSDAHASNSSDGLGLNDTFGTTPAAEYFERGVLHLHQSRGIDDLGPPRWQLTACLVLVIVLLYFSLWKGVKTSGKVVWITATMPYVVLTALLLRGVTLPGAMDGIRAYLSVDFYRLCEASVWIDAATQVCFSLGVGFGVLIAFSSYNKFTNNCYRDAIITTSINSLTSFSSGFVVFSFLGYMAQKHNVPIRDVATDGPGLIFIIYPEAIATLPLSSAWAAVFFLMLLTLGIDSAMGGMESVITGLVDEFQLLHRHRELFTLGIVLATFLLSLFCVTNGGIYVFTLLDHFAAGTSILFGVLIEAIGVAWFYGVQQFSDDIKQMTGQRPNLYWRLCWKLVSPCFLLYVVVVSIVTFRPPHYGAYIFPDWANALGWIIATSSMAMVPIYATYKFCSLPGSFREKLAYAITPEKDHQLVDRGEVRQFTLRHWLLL
Experimental: The ability of mephedrone and its metabolites to evoke release via DAT, NET and SERT was determined in rat brain synaptosomes as previously described (Baumann et al., 2012). Rats were killed with CO2, decapitated, and brains were rapidly removed and dissected on ice. Synaptosomes were prepared from striatum for DAT assays, whereas synaptosomes were prepared from whole brain minus striatum and cerebellum for the NET and SERT assays. [^3H]‐MPP^+ (9 nM) was used as the radiolabelled substrate for DAT and NET, whereas [^3H]‐5‐HT (5 nM) was used as the radiolabelled substrate for SERT. All buffers used in the release assays contained 1 μM reserpine to block vesicular uptake of substrates. The selectivity of assays was optimized for a single transporter by including unlabelled compounds [nomifensine and 1‐(2‐diphenylmethoxyethyl)‐4‐(3‐phenylpropyl)piperazine dihydrochloride (GBR12935) for SERT; GBR12935 and citalopram for NET; citalopram and desipramine for DAT] to prevent the uptake of [^3H]‐MPP^+ or [^3H]‐5‐HT by competing transporters. Synaptosomes were preloaded with radiolabelled substrate in Krebs‐phosphate buffer, which consisted of 126 mM NaCl, 2.4 mM KCl, 0.5 mM KH2PO4, 1.1 mM CaCl2, 0.83 mM MgCl2, 0.5 mM Na2SO4, 11.1 mM glucose, 13.7 mM Na2HPO4, 1 mg·mL^−1 ascorbic acid and 50 μM pargyline (pH = 7.4) for 1 h (steady state). […] Assays were terminated by vacuum filtration, and retained radioactivity was quantified by liquid scintillation counting.
(§1) Calculations were performed using Microsoft Excel® 2010 (Microsoft Corporation, Redmond, WA, USA) and GRAPHPAD PRISM 5.0. […] IC50 values for uptake inhibition and EC50 values for release were determined by nonlinear regression fits. Release data expressed as AUC were analysed by one‐way ANOVA followed by Bonferroni's multiple comparison test. Microdialysis and locomotor data were analysed by two‐way ANOVA (drug treatment × time) followed by Bonferroni's test. The effect of monensin treatment on basal efflux of tritiated substrate was analysed with the Mann–Whitney test. […]

SERT = molecular target: T2, SERT (Rattus norvegicus, UniProt P31652); assay: Transporter release assay in rat brain synaptosomes, SERT; format: biochemical; details: [3H]-5-HT; for EC50: mean (95% confidence interval)
T2 construct: a native tissue preparation that contains plasma membrane transporters in situ; from tissue; host or cells: rat whole brain minus striatum and cerebellum, synaptosomes
T2 sequence (P31652 whole entry): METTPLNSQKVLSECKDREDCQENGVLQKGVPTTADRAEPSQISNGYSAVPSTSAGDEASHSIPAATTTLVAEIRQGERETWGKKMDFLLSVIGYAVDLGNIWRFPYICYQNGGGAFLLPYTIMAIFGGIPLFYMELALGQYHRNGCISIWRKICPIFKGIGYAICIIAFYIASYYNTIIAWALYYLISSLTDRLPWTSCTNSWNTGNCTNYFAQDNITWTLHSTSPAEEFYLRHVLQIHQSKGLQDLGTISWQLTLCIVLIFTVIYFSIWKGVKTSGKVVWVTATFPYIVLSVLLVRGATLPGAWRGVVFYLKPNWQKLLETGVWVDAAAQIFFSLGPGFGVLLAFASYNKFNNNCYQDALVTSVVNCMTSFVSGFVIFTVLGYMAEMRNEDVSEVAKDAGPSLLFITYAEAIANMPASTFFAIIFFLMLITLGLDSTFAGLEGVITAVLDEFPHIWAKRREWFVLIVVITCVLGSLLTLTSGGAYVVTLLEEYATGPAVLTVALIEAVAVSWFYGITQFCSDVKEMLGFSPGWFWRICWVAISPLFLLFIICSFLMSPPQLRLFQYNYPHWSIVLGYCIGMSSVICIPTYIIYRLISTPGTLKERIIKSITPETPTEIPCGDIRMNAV
Experimental: The ability of mephedrone and its metabolites to evoke release via DAT, NET and SERT was determined in rat brain synaptosomes as previously described (Baumann et al., 2012). Rats were killed with CO2, decapitated, and brains were rapidly removed and dissected on ice. Synaptosomes were prepared from striatum for DAT assays, whereas synaptosomes were prepared from whole brain minus striatum and cerebellum for the NET and SERT assays. [^3H]‐MPP^+ (9 nM) was used as the radiolabelled substrate for DAT and NET, whereas [^3H]‐5‐HT (5 nM) was used as the radiolabelled substrate for SERT. All buffers used in the release assays contained 1 μM reserpine to block vesicular uptake of substrates. The selectivity of assays was optimized for a single transporter by including unlabelled compounds [nomifensine and 1‐(2‐diphenylmethoxyethyl)‐4‐(3‐phenylpropyl)piperazine dihydrochloride (GBR12935) for SERT; GBR12935 and citalopram for NET; citalopram and desipramine for DAT] to prevent the uptake of [^3H]‐MPP^+ or [^3H]‐5‐HT by competing transporters. Synaptosomes were preloaded with radiolabelled substrate in Krebs‐phosphate buffer, which consisted of 126 mM NaCl, 2.4 mM KCl, 0.5 mM KH2PO4, 1.1 mM CaCl2, 0.83 mM MgCl2, 0.5 mM Na2SO4, 11.1 mM glucose, 13.7 mM Na2HPO4, 1 mg·mL^−1 ascorbic acid and 50 μM pargyline (pH = 7.4) for 1 h (steady state). Assays were initiated by adding 850 μL of preloaded synaptosomes to 150 μL of test drug. Dose–response curves were generated using eight different concentrations of mephedrone, nor‐mephedrone or 4‐OH‐mephedrone. Assays were terminated by vacuum filtration, and retained radioactivity was quantified by liquid scintillation counting.
(§2) Calculations were performed using Microsoft Excel® 2010 (Microsoft Corporation, Redmond, WA, USA) and GRAPHPAD PRISM 5.0. (GraphPad Software Inc., La Jolla, CA, USA). IC50 values for uptake inhibition and EC50 values for release were determined by nonlinear regression fits. Release data expressed as AUC were analysed by one‐way ANOVA followed by Bonferroni's multiple comparison test. Microdialysis and locomotor data were analysed by two‐way ANOVA (drug treatment × time) followed by Bonferroni's test. The effect of monensin treatment on basal efflux of tritiated substrate was analysed with the Mann–Whitney test. P values less than 0.05 (i.e. P < 0.05) were considered significant. The data and statistical analysis comply with the recommendations on experimental design and analysis in pharmacology (Curtis et al., 2015).

hDAT = molecular target: T3, hDAT (Homo sapiens, UniProt Q01959); assay: Transporter release (superfusion) assay in HEK293 cells expressing hDAT; format: cell-based; details: test drug 10 μM, monensin 10 μM; post hoc Bonferroni
T3 construct: expressed in transfected cells
T3 sequence (Q01959 whole entry, the tested form may be a part): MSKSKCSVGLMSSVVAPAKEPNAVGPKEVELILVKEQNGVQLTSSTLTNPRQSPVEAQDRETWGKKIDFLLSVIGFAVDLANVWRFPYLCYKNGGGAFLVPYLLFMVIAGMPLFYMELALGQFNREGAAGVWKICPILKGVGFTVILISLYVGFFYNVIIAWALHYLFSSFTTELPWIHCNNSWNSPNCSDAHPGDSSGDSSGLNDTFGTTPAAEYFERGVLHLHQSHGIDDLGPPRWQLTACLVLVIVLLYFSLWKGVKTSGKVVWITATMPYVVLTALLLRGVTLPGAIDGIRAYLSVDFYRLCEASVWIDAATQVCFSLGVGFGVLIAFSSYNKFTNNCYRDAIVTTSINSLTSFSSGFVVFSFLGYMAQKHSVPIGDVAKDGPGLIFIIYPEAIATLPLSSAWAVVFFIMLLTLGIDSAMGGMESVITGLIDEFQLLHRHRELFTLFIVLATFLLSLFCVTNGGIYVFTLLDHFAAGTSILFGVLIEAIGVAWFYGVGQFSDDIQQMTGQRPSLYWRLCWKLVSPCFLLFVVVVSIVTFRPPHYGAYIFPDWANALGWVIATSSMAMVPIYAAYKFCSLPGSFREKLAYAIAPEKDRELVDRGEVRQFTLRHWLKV
Experimental: (§3) The generation of HEK293 cells stably expressing the human isoforms of DAT (hDAT) and NET (hNET) was carried out as described previously (Scholze et al., 2002). For SERT, the human isoform (hSERT) was cloned in frame with yellow fluorescent protein (Schmid et al., 2001). The generation of a stable cell line was performed as described by Hilber and colleagues (Hilber et al., 2005). HEK293 cells were maintained in humidified atmosphere (5% CO2, 37°C) in DMEM, supplemented with 10% heat‐inactivated FBS and penicillin (100 u 100 mL^−1) and streptomycin (100 μg 100 mL^−1). Selection pressure was maintained by adding geneticin (50 μg·mL^−1) to the cell culture media.
(§4) Superfusion experiments were performed as described previously (Scholze et al., 2002). Briefly, HEK293 cells expressing the desired transporter were seeded at a density of 40 000 cells per well onto poly‐D‐lysine‐coated 5 mm glass cover slips in 96‐well plates 24 h prior to the experiment. Cells were preloaded with [^3H]‐MPP^+ (0.1 μM, hDAT and hNET) or [^3H]‐5‐HT (0.4 μM, hSERT) for 20 min at 37°C in a final volume of 100 μL per well. Subsequently, glass coverslips were transferred into small superfusion chambers (volume of 200 μL) and superfused with KHB at 25°C with a superfusion rate of 0.7 mL·min^−1 for 40 min to establish a stable basal efflux. After washout, the collection of 2‐min fractions was initiated. After the first three basal fractions, monensin (10 μM) or solvent was added for four fractions. Consequently, the cells were challenged with test drugs (10 μM) for five fractions in the presence or absence of monensin. Finally, the cells were lysed in 1% SDS to determine the total radioactivity. Radioactivity per fraction was assessed by a liquid scintillation counter and expressed as fractional release, that is, the percentage of released ^3H in relation to total ^3H present at the beginning of the fraction (Sitte et al., 2000). For analysis, release was expressed as AUC.
as §2
Data from uptake inhibition assays cannot distinguish whether test drugs act as non‐transported inhibitors or transportable substrates, which evoke release (Scholze et al., 2000; Sitte et al., 2000; Baumann et al., 2013). Therefore, mephedrone and its metabolites were tested in release assays to further explore their interaction with transporters. The release assays were performed with the same transporter‐expressing HEK293 cell lines described above and used a superfusion system (Sitte et al., 2000). As described previously, efflux of preloaded [^3H]‐MPP^+ or [^3H]‐5‐HT was monitored in the presence or absence of monensin (10 μM) (Scholze et al., 2000). […]

hNET = molecular target: T4, hNET (Homo sapiens, UniProt P23975); assay: Transporter release (superfusion) assay in HEK293 cells expressing hNET; format: cell-based; details: test drug 10 μM, monensin 10 μM; post hoc Bonferroni
T4 construct: expressed in transfected cells
T4 sequence (P23975 whole entry, the tested form may be a part): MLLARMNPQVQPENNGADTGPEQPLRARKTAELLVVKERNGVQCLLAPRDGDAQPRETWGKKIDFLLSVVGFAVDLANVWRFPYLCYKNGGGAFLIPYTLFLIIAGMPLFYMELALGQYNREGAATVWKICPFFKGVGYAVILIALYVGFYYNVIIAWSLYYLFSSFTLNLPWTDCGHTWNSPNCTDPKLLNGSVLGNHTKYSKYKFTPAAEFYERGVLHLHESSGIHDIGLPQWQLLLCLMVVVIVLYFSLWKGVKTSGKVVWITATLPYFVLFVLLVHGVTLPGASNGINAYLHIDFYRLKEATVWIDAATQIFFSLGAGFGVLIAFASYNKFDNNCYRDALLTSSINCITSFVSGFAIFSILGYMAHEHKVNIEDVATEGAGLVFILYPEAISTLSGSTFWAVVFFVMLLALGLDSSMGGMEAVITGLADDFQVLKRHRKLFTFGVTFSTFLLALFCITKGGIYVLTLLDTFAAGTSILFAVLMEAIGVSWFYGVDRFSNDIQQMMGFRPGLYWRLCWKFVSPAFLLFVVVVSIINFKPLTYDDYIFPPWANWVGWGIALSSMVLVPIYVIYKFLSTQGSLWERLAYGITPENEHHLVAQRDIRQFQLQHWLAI
Experimental: as §3
as §4, with “Consequently, the cells were challenged with test drugs (10 μM) for five fractions in the presence or absence of monensin.” left out
as §1
Data from uptake inhibition assays cannot distinguish whether test drugs act as non‐transported inhibitors or transportable substrates, which evoke release (Scholze et al., 2000; Sitte et al., 2000; Baumann et al., 2013). […] As described previously, efflux of preloaded [^3H]‐MPP^+ or [^3H]‐5‐HT was monitored in the presence or absence of monensin (10 μM) (Scholze et al., 2000). […]

[1] = EC50 on transporter mediated efflux, DAT
[2] = EC50 on transporter mediated efflux, SERT

Structure (SMILES)	EC50 (DAT; [1])	EC50 (SERT; [2])	enhancement by monensin of drug-evoked [3H]-MPP+ release at hDAT (AUC) (hDAT)	enhancement by monensin of drug-evoked [3H]-MPP+ release at hNET (AUC) (hNET)	EC50 (DAT; read-out: EC50 on transporter mediated efflux, DAT)	rightward shift of SERT release curve compared with mephedrone (SERT)	EC50 (SERT; read-out: EC50 on transporter mediated efflux, SERT)
CNC(C)C(=O)c1ccc(C)cc1.Cl (stereo not shown) [Mephedrone, 2‐Methylamino‐1‐(p‐tolyl)propan‐1‐one hydrochloride]	52 nM	210 nM	significant	significant	–	–	–
Cc1ccc(C(=O)C(C)N)cc1.Cl (stereo not shown) [Nor‐mephedrone, 2‐amino‐1‐(p‐tolyl)propan‐1‐one hydrochloride]	220 nM	200 nM and 210 nM	significant	significant	–	–	–
CNC(C)C(=O)c1ccc(CO)cc1.Cl (stereo not shown) [4‐OH‐mephedrone, 1‐(4‐(hydroxymethyl)phenyl)‐2‐(methylamino)propan‐1‐one hydrochloride]	–	–	significant	significant	190 nM	10 fold	2000 nM and 2010 nM
